Like-named read-outs stand apart in the source and are kept apart here.
Tests used:
[1] = system: Barley; test: Whole plant screen for plant growth regulator activity, barley (BR); format: in vivo, Barley (Atem); conditions: BR, 4000 ppm (4 kg/ha), visual score after 2-6 weeks; for T = Tillering or side shooting: * = decrease in tillering
Procedure, shortened: (§1)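 Visual scoring of morphological effects after 2-6 weeks in glasshouse, compared with formulation-blank controls. Spray application was 4000 ppm, equal to 4 kg/ha at 1000 l/ha field volume, at set leaf stages. Growth at 25° C./22° C. day/night with 16 hour photoperiod; temperate cereals wheat and barley at 16° C./13° C.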

[2] = system: Wheat; test: Whole plant screen for plant growth regulator activity, wheat (WW); format: in vivo, Wheat (Timmo); conditions: WW, 4000 ppm (4 kg/ha), visual score after 2-6 weeks; for T = Tillering or side shooting: * = decrease in tillering
Procedure, shortened: as §1

[3] = system: Rice; test: Whole plant screen for plant growth regulator activity, rice (RC); format: in vivo, Rice (Ishikari); conditions: 4000 ppm (4 kg/ha), visual score after 2-6 weeks; for T = Tillering or side shooting: * = decrease in tillering
Procedure, shortened: as §1

[4] = system: Maize; test: Whole plant screen for plant growth regulator activity, maize (MZ); format: in vivo, Maize (Earliking); conditions: 4000 ppm (4 kg/ha), visual score after 2-6 weeks
Description: Compounds 1 to 3 in Table 1 were tested for plant growth regulator activity against five species for various growth effects relevant to plant growth regulation.
The plant species used in this screen are presented in Table II with the leaf stage at which they were sprayed. Each chemical was applied at 4000 ppm (4 kg/ha in a 1000 l/ha field volume) using a tracksprayer and a SS8004E (Teejet) nozzle.
After spray the plants were grown in a glasshouse with 25° C. day/22° C. night temperatures and supplementary lighting was supplied when necessary (from mercury vapour lamps), to provide a 16 hour photoperiod. The exception to this were the temperate cereals, wheat and barley which were grown in 16° C. day/13° C. night temperatures.
After 2-6 weeks in the glasshouse, depending on the time of year, the plants were visually assessed for morphological characteristics. Formulation blanks were used as controls to assess the plants. […]

[5] = system: Apple; test: Whole plant screen for plant growth regulator activity, apple (AP); format: in vivo, Apple (Red Delicious); conditions: 4000 ppm (4 kg/ha), visual score after 2-6 weeks
Procedure, shortened: as §1

[6] = system: Rice; test: Intermediate Retardant Test, rice; format: in vivo, Rice (Ishikari); conditions: Oryza sativa, 672 h, read-out: Percentage Reduction in Height of Rice (Compared to formulation blank)
Procedure, shortened: (§2)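 Overall spray at 500 and 2000 ppm (0.5 and 2 kg/ha^-1 at 1000 l/ha^-1); for apples, a 2000 ppm foliar-only spray was also compared with a 2000 ppm root drench. Rice grew in flooded 4" paddy pots, barley and apples in 4" pots. About 28 days after treatment, height (to top-most ligule, or to apex for apples) was recorded as % reduction versus formulation blank.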

[7] = system: Spring Barley; test: Intermediate Retardant Test, spring barley; format: in vivo, Spring Barley (Atem/kym); conditions: Hordeum vulgare, 672 h, read-out: Percentage Reduction in Height of Spring Barley (Compared to formulation blank)
Procedure, shortened: as §2

[8] = system: Apples; test: Intermediate Retardant Test, apples, overall spray; format: in vivo, Apples (Red Delicious); conditions: approximately 28 days, Table VIII
Excerpt: Three species are involved in this test RICE, SPRING-BARLEY and APPLES. The variety and growth stages at spray are outlined in Table V. Compounds were applied at 500 ppm and 2000 ppm respectively (0.5 kg and 2 kg/ha^-1 at a field volume of 1000 l/ha^-1) as an overall spray except in the case of certain tests on APPLES. This gives a foliar and root component in the test, i.e., this test will detect the activity of both root and foliar acting compounds. The intermediate retardant test on APPLES of which the results are given in Table IX was different, in that a foliar (only) spray at 2000 ppm was compared with a root drench, also at 2000 ppm. The rice was grown in 4" `paddy` pots, i.e., the roots and bottom of the stems are immersed in water under conditions corresponding to those in paddy fields. Spring barley and apples were grown in 4" pots. The plants were assessed for height to top-most ligule at approximately 28 days after treatment for spring barley and rice and for height to apex at approximately 28 days after the treatment for apples. In each case the result for the 500 ppm and 2000 ppm test for each compound is compared to the height of the formulation blank in that test, presented as a percentage reduction in height compared to the formulation blank.

[9] = system: Apples; test: Intermediate Retardant Test, apples, foliar spray compared with root drench; format: in vivo, Apples (Red Delicious); conditions: 672 h, side-by-side comparison with prior art compound, Table XII, read-out: Percentage Reduction in Height of Apples (Compared to formulation blank)
Procedure, shortened: as §2

[10] = overall spray, approximately 28 days, Table VI
[11] = side-by-side comparison with prior art compound, Table X
[12] = overall spray, approximately 28 days, Table VII
[13] = side-by-side comparison with prior art compound, Table XI

Row | SMILES | G = Greening effect [1] | I = Interligular or internodal length reduction [1] | R = Retardation [1] | T = Tillering or side shooting [1] | G = Greening effect [2] | I = Interligular or internodal length reduction [2] | R = Retardation [2] | T = Tillering or side shooting [2] | G = Greening effect [3] | I = Interligular or internodal length reduction [3] | R = Retardation [3] | T = Tillering or side shooting [3] | G = Greening effect [5] | I = Interligular or internodal length reduction [5] | R = Retardation [5] | Percent reduction in rice height vs formulation blank at 500 ppm [6, 10] [%] | Percent reduction in rice height vs formulation blank at 500 ppm [6, 11] [%] | Percent reduction in rice height vs formulation blank at 2000 ppm [6, 10] [%] | percent reduction in plant height at 500 ppm [7, 13] [%] | percent reduction in plant height at 2000 ppm [7, 12] [%] | further results
1 | CCCC#CC(O)(c1cncnc1)C(C)C (centres unmarked) [Compound 2, 2-methyl-1-(pent-1-yne)-1-(pyrimidin-5-yl)-propan-1-ol] | 1 (10-30%) | 3 (61-100%) | 3 (61-100%) | 3 (61-100%) | 2 (31-60%) | 3 (61-100%) | 2 (31-60%) | 2 (31-60%) | 2 (31-60%) | 3 (61-100%) | 3 (61-100%) | 3 (61-100%) | 1 (10-30%) | 2 (31-60%) | 3 (61-100%) | 18 | 27 | 46 | 25 | 20 | I = Interligular or internodal length reduction [4]: 1 (10-30%); R = Retardation [4]: 2 (31-60%); Percent reduction in rice height vs formulation blank at 2000 ppm [6, 11]: 69%; percent reduction in plant height at 500 ppm [7, 12]: 1%; percent reduction in plant height at 2000 ppm [7, 13]: 59%; Percentage Reduction in Height of Apples (Compared to formulation blank) ([8]; 500 ppm): 10.5%; Percentage Reduction in Height of Apples (Compared to formulation blank) ([8]; 2000 ppm): 52.1%; percent reduction in plant height at 2000 ppm ([9]; 2000 ppm (Foliar)): 41.8%; percent reduction in plant height at 2000 ppm ([9]; 2000 ppm (Root)): 64.4%
2 | CCCCCC(O)(c1cncnc1)C(C)C (centres unmarked) [Compound 3, 2-methyl-1-pentyl-1-(pyrimidin-5-yl)-propan-1-ol] | 2 (31-60%) | 3 (61-100%) | 3 (61-100%) | 3 (61-100%) | 1 (10-30%) | 3 (61-100%) | 3 (61-100%) | 2 (31-60%) | 2 (31-60%) | 2 (31-60%) | 3 (61-100%) | 1 (10-30%) | 1 (10-30%) | 2 (31-60%) | 3 (61-100%) | 17 | 17 | 47 | 0 | 11 | A = Apical damage [4]: 1 (10-30%); Percentage Reduction in Height of Apples (Compared to formulation blank) ([8]; 2000 ppm): 34.1%; percent reduction in plant height at 2000 ppm ([9]; 2000 ppm (Foliar)): 14.2%; percent reduction in plant height at 2000 ppm ([9]; 2000 ppm (Root)): 62.7%
